# From patent US12295997B2, “Prostate neoantigens and their uses” (Janssen Biotech, Inc., priority 2020, dated 2025)
# Test system: CD8+ and CD4+ T cells (autologous CD3+ Pan-T cells isolated from human normal PBMCs)
# Experiment: Endogenous autologous normal donor restimulation assay (Ad5-transduced CD1c+ dendritic cells, TNFα/IFNγ flow cytometry)
# Format: cell-based
# Settings: Table 27, endogenous expression, peptide pool restimulation, highest across sixteen normal donors
# Procedure: CD1c+ Dendritic Cells (DC) isolated from human normal PBMCs were thawed using media (IMDM (Gibco) supplemented with glutamine, HEPES, 5% human serum (Sigma), and 1×Pen-Strep). DC cells were resuspended in media supplemented with IL-4 (Peprotech, 80 ng/mL) and GM-CSF (Gibco, 80 ng/mL), plated in 6 well microplates, and rested overnight at 37° C. (5% CO2). The following day, DC cells were counted and plated in a 96 well round bottom microplate at a concentration of 30,000 viable cells per well. Ad5 vectors (Vector Biolabs) were dilute in media to an MOI (Multiplicity Of Infection) of 5000 based on Plaque Forming Units. Ad5 vectors for the CEF pool and a “null” were used as controls. DCs were transduced with Ad5 vectors overnight at 37° C. (5% CO2). The following day, the Ad5 vectors were washed off the plate by three sequential centrifugation/aspiration steps using sterile Phosphate Buffered Saline. After the final wash, transduced DCs were resuspended in 100 μL media. Autologous CD3+ Pan-T cells isolated from human normal PBMCs were thawed using media. Pan-T cells were added to the irradiated DCs at 300,000 viable cells per well (100 μL/well). Human IL-15 (Peprotech) was added to all wells at final concentration of 10 ng/mL.
# Plates were incubated at 37° C. (5% CO2) for a total of 12 days. Media was refreshed every 2-3 days with IL-15 (10 ng/mL final concentration) and IL-2 (R&D systems, 10 IU/mL final concentration). On day 11 lyophilized peptides (15-mer overlapping peptides) were solubilized in 100% DMSO and pooled by neoantigen to between 5 mg/mL and 20 mg/mL. Neoantigen peptides pools were added to cells for a final concentration of 2.5 μg/mL to 10 μg/mL. CEF Peptide Pool “Plus” (Cellular Technologies, Ltd.) was utilized as a positive control and DMSO at the same final concentration as the experimental peptides was utilized as a negative control. Protein Inhibitor Cocktail (eBioscience) was added to every well and plate was incubated overnight at 37° C. (5% CO2).
# On day 12, cells were stained for intracellular flow cytometry analysis. The cells were washed with PBS and stained with Live/Dead Fixable Aqua Dead Cell stain (Thermo-Fisher). Following the live/dead stain, cells were blocked using Biotin-Free Fc Receptor Blocker (Accurate Chemical & Scientific Corp). Extracellular cellular flow panel ([…] per well in 50 μL) consisted of CD3 PerCP-Cy5.5 (Biolegend), CD4 BV421 (Biolegend), and CD8 APC-Cy7 (Biolegend). After extracellular staining, cells were fixed using Foxp3/fTranscription Factor Staining Buffer Set (eBioscience) and stained for intracellular proteins (1:50 dilution) using TNFα FITC (R&D Systems) and IFNγ BV785 (Biolegend). Cells were washed and resuspended in stain buffer and analyzed using a BD Celesta flow cytometer.
# Flow cytometry cell staining analysis was completed using FlowJo v10. Cells were gated on live, singlet, CD3+ cells. The CD8+ and CD4+ T cells were analyzed for TNFα/IFNγ expression and the frequency of double positive TNFα/IFNγ CD8+ and the frequency of double positive TNFα/IFNγ CD4+ T cells were recorded. Responses were assessed to be positive when the frequency of double positive TNFα/IFNγ CD8+ or TNFα/IFNγ CD4+ T cells due to stimulation with an experimental peptide pool was increased greater than or equal to 3-fold over the DMSO only negative control for that donor and at least 0.01%.
# For three of the neoantigens, an Ad5 vector was designed to transduce normal Dendritic cells with the neoantigens. This assay assessed the ability of the endogenously expressed and presented neoantigens to activate autologous T cells following overlapping 15-mer peptide pools restimulation using the endogenous autologous normal donor restimulation assay described in Example 1 utilizing TNFα and IFNγ production by CD8^+ and CD4^+ T cells as a readout. […] Sixteen donors were used to assess endogenous immunogenicity.
sequence,measurement,value
YEAGMTLGGKILFFLFLLLPLSPFSLIF (listed as Homo sapiens) [Neoantigen P87],Maximum Fold Change Over Background CD4+ cells,2.41
same,Maximum Fold Change Over Background CD8+ cells,2.47
same,Maximum Frequency of TNFα/IFNγ Double Positive CD4+ T cells,0.079
same,Maximum Frequency of TNFα/IFNγ Double Positive CD8+ T cells,0.39
